Measured values taken from PMC8869984, “Multifunctional Silver(I) Complexes with Metronidazole Drug Reveal Antimicrobial Properties and Antitumor Activity against Human Hepatoma and Colorectal Adenocarcinoma Cells” (Cancers, 2022).

Columns and labels:
[1] = tested on: V. parvula ATCC 10790; assay: micro-dilution broth method (MIC, MBC); assay type: cell-based, Veillonella parvula
[2] = tested on: K. pneumoniae ATCC 13883; assay: micro-dilution broth method (MIC, MBC); assay type: cell-based, Klebsiella pneumoniae
[3] = tested on: B. cereus ATCC 10876; assay: micro-dilution broth method (MIC, MBC); assay type: cell-based, Bacillus cereus
[4] = tested on: E. coli ATCC 25922; assay: micro-dilution broth method (MIC, MBC); assay type: cell-based, Escherichia coli
[5] = tested on: P. aeruginosa ATCC 9027; assay: micro-dilution broth method (MIC, MBC); assay type: cell-based, Pseudomonas aeruginosa
[6] = tested on: Caco-2 cells; assay: MTT assay (mitochondrial activity), 72 h exposure; assay type: cell-based, human; settings: Caco-2, MTT, Figure 6
[7] = tested on: M. luteus ATCC 10240; assay: micro-dilution broth method (MIC, MBC); assay type: cell-based, Micrococcus luteus
[8] = tested on: C. perfringens ATCC 13124; assay: microbe, parasite or virus in culture; assay type: cell-based, Clostridium perfringens
[9] = tested on: P. intermedia ATCC 25611; assay: micro-dilution broth method (MIC, MBC); assay type: cell-based
[10] = tested on: H. pylori ATCC 43504; assay: micro-dilution broth method (MIC, MBC); assay type: cell-based
[11] = tested on: S. aureus biofilm; assay: qualitative antibiofilm activity, confocal laser scanning microscope (CLSM); settings: 500 mg/L, 24 h exposure
[12] = tested on: S. aureus ATCC 25923; assay: micro-dilution broth method (MIC, MBC); assay type: cell-based, Staphylococcus aureus
[13] = tested on: reference aerobic and anaerobic microorganisms (ATCC); assay: micro-dilution broth method, whole panel of reference strains; assay type: cell-based; settings: against the majority of tested bacterial strains
[14] = tested on: S. epidermidis ATCC 12228; assay: micro-dilution broth method (MIC, MBC); assay type: cell-based, Staphylococcus epidermidis
[15] = tested on: C. jejunii ATCC 33291; assay: micro-dilution broth method (MIC, MBC); assay type: cell-based, Campylobacter jejunii
[16] = tested on: Caco-2 cells; assay: NRU assay (lysosomal activity), 72 h exposure; assay type: cell-based, human; settings: Caco-2, NRU, Figure 6
[17] = tested on: F. nucleatum ATCC 25586; assay: micro-dilution broth method (MIC, MBC); assay type: cell-based, Fusobacterium nucleatum
[18] = tested on: P. acnes ATCC 11827; assay: micro-dilution broth method (MIC, MBC); assay type: cell-based, Propionibacterium acnes; settings: P. acnes ATCC 11827, value in brackets
[19] = tested on: S. typhimurium ATCC 14028; assay: micro-dilution broth method (MIC, MBC); assay type: cell-based, Salmonella Typhimurium
[20] = tested on: A. israeli ATCC 10049; assay: micro-dilution broth method (MIC, MBC); assay type: cell-based, Actinomyces israelii
[21] = tested on: Caco-2 cells; assay: LDH leakage assay (membrane integrity), 72 h exposure; assay type: cell-based, human; settings: Caco-2, LDH, Figure 6
[22] = tested on: B. subtilis ATCC 6633; assay: micro-dilution broth method (MIC, MBC); assay type: cell-based, Bacillus subtilis
[23] = tested on: Caco-2 cells; assay: TPC assay (total protein content), 72 h exposure; assay type: cell-based, human; settings: Caco-2, TPC, Figure 6
[24] = tested on: E. faecalis ATCC 29212; assay: micro-dilution broth method (MIC, MBC); assay type: cell-based, Enterococcus faecalis
[25] = tested on: B. fragilis ATCC 10240; assay: micro-dilution broth method (MIC, MBC); assay type: cell-based, Bacteroides fragilis
[26] = tested on: HepG2 cells; assay: LDH leakage assay (membrane integrity), 72 h exposure; assay type: cell-based, human; settings: mean ± SD, n = 3
Experimental: (§1) The human hepatoma (HepG2) and colorectal adenocarcinoma (Caco-2) cells were purchased from the American Type Culture Collection: ATCC HB-8065 and ATCC HTB-37, respectively. These cells were cultured in Minimum Essential Medium Eagle (MEME) (ATCC). The murine fibroblasts cell line (Balb/c 3T3 clone A31) (gift from the Department of Swine Diseases of the National Veterinary Research Institute in Pulawy) was cultured in Dulbecco’s Modified Eagle Medium (DMEM) (ATCC). The media were supplemented with 10% BCS (Balb/c 3T3), 10% FBS (HepG2), 20% FBS (Caco-2), 1% L-glutamine, 1% antibiotic solution. The cells were maintained in 75 cm^2 cell culture flasks (NUNC) in a humidified incubator at 37 °C in an atmosphere of 5% CO2. The medium was refreshed every two or three days, and the cells were trypsinized by 0.25% trypsin–0.02% EDTA after reaching 70–80% confluence. Single cell suspensions were prepared and adjusted to a density of 2 × 10^5 cell/mL^−1 (HepG2), 1 × 10^5 cell/mL^−1 (Caco-2) and 5 × 10^4 cell/mL^−1 (Balb/c 3T3). The cell suspension was transferred to 96-well plates (100 µL/well) and incubated for 24 h before the exposure to the studied compounds. Stock solutions of ligands and metal complexes were prepared in sterile water and diluted with culture medium to obtain a concentration range from 0.1 to 10 µM. The final concentration of sterile water was 0.1% in the medium. […] As a negative control, cultured cells were grown in the absence of studied compounds. Each concentration was tested in six replicates in three independent experiments. Cytotoxicity was assessed after 72 h of exposure of the cells to compounds. The medium was not changed during the incubation time.
(§2) The integrity of the plasma membrane was assessed through the test of lactate dehydrogenase (LDH) release, which was monitored using the commercially available Cytotoxicity Detection Kit (LDH) (Roche Diagnostics, Warsaw, Poland). […] The absorbance was measured at 492 nm in a microplate reader Synergy HTX multi-mode reader (BioTek® Instruments Inc., Winooski, VT, USA) using a blank as a reference. […]

[27] = tested on: Balb/c 3T3 cells; assay: NRU assay (lysosomal activity), 72 h exposure; assay type: cell-based, murine; settings: Balb/c 3T3, NRU, mean ± SD, n = 3
Experimental: as §1
This method is based on staining living cells with neutral red, which readily diffuses through the plasma membrane and accumulates in lysosomes. […] After 10 min of shaking, the absorbance of the dissolved NR was measured using a Synergy HTX multi-mode reader (BioTek® Instruments Inc., Winooski, VT, USA) at 540 nm using a blank as a reference. Cytotoxicity was expressed as a percentage of the negative control. […]

[28] = tested on: Balb/c 3T3 cells; assay: LDH leakage assay (membrane integrity), 72 h exposure; assay type: cell-based, murine; settings: Balb/c 3T3, LDH, mean ± SD, n = 3
Experimental: as §1, §2

[29] = tested on: Balb/c 3T3 cells; assay: MTT assay (mitochondrial activity), 72 h exposure; assay type: cell-based, murine; settings: Balb/c 3T3, MTT, mean ± SD, n = 3
Experimental: as §1
The metabolic activity of living cells was assessed by the measurement of the activity of dehydrogenases. […] The plate was shaken for 15 min at room temperature and transferred to a microplate reader Synergy HTX multi-mode reader (BioTek® Instruments Inc., Winooski, VT, USA) to measure the absorbance at 570 nm, using a blank as a reference. Cytotoxicity was expressed as a percentage of the negative control. […]

[30] = tested on: Balb/c 3T3 cells; assay: TPC assay (total protein content), 72 h exposure; assay type: cell-based, murine; settings: Balb/c 3T3, TPC, mean ± SD, n = 3
Experimental: as §1
This assay is based upon staining the total cellular protein (proliferation). […] The absorbance was measured at 595 nm in a microplate reader Synergy HTX multi-mode reader (BioTek® Instruments Inc., Winooski, VT, USA) using a blank as a reference. Cytotoxicity was expressed as a percentage of the negative control. […]

[31] = V. parvula ATCC 10790, value in brackets
[32] = K. pneumoniae ATCC 13883, value in brackets
[33] = B. cereus ATCC 10876, value in brackets
[34] = E. coli ATCC 25922, value in brackets
[35] = P. aeruginosa ATCC 9027, value in brackets
[36] = M. luteus ATCC 10240, value in brackets
[37] = C. perfringens ATCC 13124, value in brackets
[38] = P. intermedia ATCC 25611, value in brackets
[39] = H. pylori ATCC 43504, value in brackets
[40] = S. aureus ATCC 25923, value in brackets
[41] = S. epidermidis ATCC 12228, value in brackets
[42] = C. jejunii ATCC 33291, value in brackets
[43] = F. nucleatum ATCC 25586, value in brackets
[44] = S. typhimurium ATCC 14028, value in brackets
[45] = A. israeli ATCC 10049, value in brackets
[46] = B. subtilis ATCC 6633, value in brackets
[47] = E. faecalis ATCC 29212, value in brackets
[48] = B. fragilis ATCC 10240, value in brackets

Compound `Cc1ncc([N+](=O)[O-])n1CCO.Cc1ncc([N+](=O)[O-])n1CCO.O=[N+]([O-])[O-].[Ag+]` [[Ag(MTZ)2NO3]] has an MBC ([1]; V. parvula ATCC 10790) of 1.95 mg/L, an MIC ([1]; V. parvula ATCC 10790) of 1.95 mg/L and an MBC [1, 31] of 0.006 µM/mL. For the same compound, the MIC [1, 31] was 0.006 µM/mL, the MBC ([2]; K. pneumoniae ATCC 13883) was 31.3 mg/L and the MIC ([2]; K. pneumoniae ATCC 13883) was 15.6 mg/L. The MBC [2, 32] was 0.1 µM/mL, the MIC [2, 32] was 0.049 µM/mL and the MIC ([3]; B. cereus ATCC 10876) was 62.5 mg/L. For the same compound, the MBC [3, 33] was 0.4 µM/mL, the MIC [3, 33] was 0.2 µM/mL and the MBC ([4]; E. coli ATCC 25922) was 31.3 mg/L. The MIC ([4]; E. coli ATCC 25922) was 15.6 mg/L, the MBC [4, 34] was 0.1 µM/mL and the MIC [4, 34] was 0.049 µM/mL. It also gave an MBC ([5]; P. aeruginosa ATCC 9027) of 15.6 mg/L, an MIC ([5]; P. aeruginosa ATCC 9027) of 7.8 mg/L and an MBC [5, 35] of 0.049 µM/mL. The MIC [5, 35] was 0.025 µM/mL, the “lowest concentration with inhibition of mitochondrial activity” value [6] was 5.0 µM and the MBC ([7]; M. luteus ATCC 10240) was 62.5 mg/L. The MIC ([7]; M. luteus ATCC 10240) was 7.8 mg/L, the MBC [7, 36] was 0.2 µM/mL and the MIC [7, 36] was 0.025 µM/mL. For the same compound, the MBC ([8]; C. perfringens ATCC 13124) was 1.95 mg/L, the MIC ([8]; C. perfringens ATCC 13124) was 1.95 mg/L and the MBC [8, 37] was 0.006 µM/mL. The MIC [8, 37] was 0.006 µM/mL, the MBC ([9]; P. intermedia ATCC 25611) was 0.98 mg/L and the MIC ([9]; P. intermedia ATCC 25611) was 0.98 mg/L. The MBC [9, 38] was 0.003 µM/mL, the MIC [9, 38] was 0.003 µM/mL and the MBC ([10]; H. pylori ATCC 43504) was 15.6 mg/L. It also gave an MIC ([10]; H. pylori ATCC 43504) of 15.6 mg/L, an MBC [10, 39] of 0.049 µM/mL and an MIC [10, 39] of 0.049 µM/mL. For the same compound, the “effect on biofilm (CLSM, qualitative)” value [11] was “significantly reduced biofilm density”, the MBC ([12]; S. aureus ATCC 25923) was 62.5 mg/L and the MIC ([12]; S. aureus ATCC 25923) was 15.6 mg/L. The MBC [12, 40] was 0.2 µM/mL, the MIC [12, 40] was 0.049 µM/mL and the “minimal inhibition concentration (MIC), range” value [13] was 0.24 to 250 µg/mL. It also gave an MBC ([14]; S. epidermidis ATCC 12228) of 62.5 mg/L, an MIC ([14]; S. epidermidis ATCC 12228) of 7.8 mg/L and an MBC [14, 41] of 0.2 µM/mL. For the same compound, the MIC [14, 41] was 0.025 µM/mL, the MIC ([15]; C. jejunii ATCC 33291) was 31.3 mg/L and the MBC [15, 42] was 0.4 µM/mL. The MIC [15, 42] was 0.1 µM/mL, the “lowest concentration with inhibition of lysosomal activity” value [16] was 5.0 µM and the MBC ([17]; F. nucleatum ATCC 25586) was 0.98 mg/L. The MIC ([17]; F. nucleatum ATCC 25586) was 0.49 mg/L, the MBC [17, 43] was 0.003 µM/mL and the MIC [17, 43] was 0.0015 µM/mL. The MBC [18] was 0.4 µM/mL, the MIC [18] was 0.4 µM/mL and the MBC ([19]; S. typhimurium ATCC 14028) was 31.3 mg/L. For the same compound, the MIC ([19]; S. typhimurium ATCC 14028) was 15.6 mg/L, the MBC [19, 44] was 0.1 µM/mL and the MIC [19, 44] was 0.049 µM/mL. The MBC ([20]; A. israeli ATCC 10049) was 3.9 mg/L, the MIC ([20]; A. israeli ATCC 10049) was 0.49 mg/L and the MBC [20, 45] was 0.012 µM/mL. The MIC [20, 45] was 0.0015 µM/mL, the “lowest concentration with significant (p ≤ 0.05) disintegration of cellular membranes” value [21] was 1.0 µM and the MBC ([22]; B. subtilis ATCC 6633) was 15.6 mg/L. For the same compound, the MIC ([22]; B. subtilis ATCC 6633) was 15.6 mg/L, the MBC [22, 46] was 0.049 µM/mL and the MIC [22, 46] was 0.049 µM/mL. For the same compound, the “lowest concentration with decreased total protein content” value [23] was 10.0 µM, the MBC ([24]; E. faecalis ATCC 29212) was 62.5 mg/L and the MIC ([24]; E. faecalis ATCC 29212) was 31.3 mg/L. The MBC [24, 47] was 0.2 µM/mL, the MIC [24, 47] was 0.1 µM/mL and the MBC ([25]; B. fragilis ATCC 10240) was 0.98 mg/L. The MIC ([25]; B. fragilis ATCC 10240) was 0.98 mg/L, the MBC [25, 48] was 0.003 µM/mL and the MIC [25, 48] was 0.003 µM/mL.

With `N.N.[Cl][Pt][Cl]` [Cisplatin, cisplatin] the IC50 [26] was < 0.1 µM, the IC50 [27] was > 10 µM and the IC50 [28] was > 10 µM. For the same compound, the IC50 [29] was > 10 µM and the IC50 [30] was > 10 µM.
